Results taken from US20240277006A1, “ANTIBIOTIC-FREE ANTIMICROBIAL FEED ADDITIVES AND ANTIMICROBIAL COMPOSITIONS” (Sláinte Beoga Teoranta, priority 2018, published 2024).

Tested on: E. coli (1103 DSMZ)
Assay: Checkerboard assay, composition with antibiotic
Assay type: cell-based
Conditions: composition comprising a source of iodide ions and a source of hydrogen peroxide plus antibiotic
Protocol: Checkerboard assays were carried out to determine if there is a synergistic antagonistic effect with the addition of an antibiotic to a composition comprising a source of iodide ions and a source of hydrogen peroxide. • E. coli (1103 DSMZ) was used for tests • These tests were carried out in lysogeny broth (lb) • Antibiotics tested were ampicillin and gentamycin • Procedure: • 50 μl antibiotic • 100 μl composition • 150 μl 10^5 cells in LB Results
Cells shaded in dark grey represent sub-inhibitory concentrations where growth prevailed. Bacterial growth was prevented for the remaining cells. […] However, in the presence of both the composition and the antibiotic, the concentrations required to achieve a kill are lower—in other words, the combined MIC is lower. These can be seen by the entries marked with a star (*).

## CC[C@H]1OC(=O)[C@H](C)[C@@H](O[C@H]2C[C@@](C)(OC)[C@@H](O)[C@H](C)O2)[C@H](C)[C@@H](O[C@@H]2O[C@H](C)C[C@H](N(C)C)[C@H]2O)[C@](C)(O)C[C@@H](C)C(=O)[C@H](C)[C@@H](O)[C@]1(C)O [erythromycin]
  Effect of the antibiotic in combination with the composition: synergistic effect

## CC[C@H]1OC(=O)[C@H](C)[C@@H](O[C@H]2C[C@@](C)(OC)[C@@H](O)[C@H](C)O2)[C@H](C)[C@@H](O[C@@H]2O[C@H](C)C[C@H](N(C)C)[C@H]2O)[C@](C)(OC)C[C@@H](C)C(=O)[C@H](C)[C@@H](O)[C@]1(C)O [clarithromycin]
  Effect of the antibiotic in combination with the composition: synergistic effect
